Experimental data: patent US8309606B2, “Compounds for use in the treatment of autoimmune diseases, immuno-allergical diseases and organ or tissue transplantation rejection” (Novaremed Limited, priority 2002, dated 2012)

System: spleen cells±ConA
Test: Proliferation responses of splenocytes ±Con A, [3H]thymidine incorporation
Assay type: cell-based, mice
Settings: for Con A1 / Con A2 / No Con A: incorporated radioactivity
Method: Spleen cells obtained from native or concanavalin A (Con A)-treated mice were examined in-vitro for their response to T-cell-dependent mitogens. Cells were plated in quadruplicate in 96-well, flat-bottom, microtiter plates (4×10^5 cells/0.2 ml/well) in RPMI-1640 medium supplemented with 5% heat inactivated FCS, 2 mM L-glutamine, 100 U/ml penicillin, […] streptomycin and various concentrations of compound 10 ([…]). All plates were incubated for 48 h in humidified atmosphere of 5% CO2 in air at 37° C., and then pulsed for 18 h with […] ^3[H] thymidine. Cells from each microculture were harvested on fiberglass filters using a multiharvester, and incorporated radioactivity was measured using standard scintillation techniques.

SMILES: CC(CO)COCC(C)OCC(C)OCC(C)OCC(C)OCC(C)OCC(C)OCC(C)OCC(C)OCC(C)OCC(C)OCC(C)OCC(C)OCC(C)OCC(C)OCC(C)OCC(C)OCC(Cc1ccccc1)NC(=O)CCc1ccc(O)cc1 (stereo not shown) [Compound 10]
- Con A1 (100 pg/ml): 1280
- Con A2 (100 pg/ml): 3481
- No Con A (100 pg/ml): 271
- Con A1 (1 ng/ml): 733
- Con A2 (1 ng/ml): 3609
- No Con A (1 ng/ml): 284
- Con A1 (100 ng/ml): 880
- Con A2 (100 ng/ml): 2489
- No Con A (100 ng/ml): 274
- Con A1 (1 μg/ml): 986
- Con A2 (1 μg/ml): 2156
- No Con A (1 μg/ml): 333
- Con A1 (100 μg/ml): 598
- Con A2 (100 μg/ml): 1380
- No Con A (100 μg/ml): 170
- effect on the proliferation of the splenocytes (incubation with compound (Table 1)): significant inhibition
